Experimental data from ChEMBL document CHEMBL4321812, “Structure-based rational design of staurosporine-based fluorescent probe with broad-ranging kinase affinity for kinase panel application” (Bioorg Med Chem Lett, 2019).

Columns and labels:
[1] = molecular target: Tyrosine-protein kinase JAK2 (Homo sapiens, UniProt O60674); assay: Binding affinity to recombinant N-terminal His-FLAG-GST-tagged JAK2 (unknown origin) (826 to 1132 residues) expressed in baculovirus infected Sf9 insect cells incubated for 1 hr by TR-FRET assay
[2] = molecular target: Serine/threonine-protein kinase MRCK gamma (Homo sapiens, UniProt Q6DT37); assay: Binding affinity to recombinant full-length N-terminal His-FLAG-GST-tagged DMPK2 (unknown origin) expressed in baculovirus infected Sf9 insect cells incubated for 1 hr by TR-FRET assay
[3] = molecular target: CDK2/Cyclin A2 (Homo sapiens, UniProt P24941); assay: Binding affinity to recombinant human full-length N-terminal GST-tagged CDK2/cyclin A2 expressed in baculovirus expression system using modified Histone H1 as substrate incubated for 1 hr by TR-FRET assay
[4] = molecular target: Serine/threonine-protein kinase SIK3 (Homo sapiens, UniProt Q9Y2K2); assay: Binding affinity to recombinant N-terminal His-FLAG-GST-tagged SIK3 (unknown origin) (59 to 365 residues) expressed in baculovirus infected Sf9 insect cells incubated for 1 hr by TR-FRET assay
[5] = molecular target: Tyrosine-protein kinase ZAP-70 (Homo sapiens, UniProt P43403); assay: Binding affinity to recombinant full-length N-terminal His-FLAG-GST-tagged ZAP70 (unknown origin) expressed in baculovirus infected Sf9 insect cells incubated for 1 hr by TR-FRET assay
[6] = molecular target: Serine/threonine-protein kinase Chk2 (Homo sapiens, UniProt O96017); assay: Binding affinity to recombinant full-length N-terminal His-FLAG-GST-tagged CHEK2 (unknown origin) expressed in baculovirus infected Sf9 insect cells incubated for 1 hr by TR-FRET assay
[7] = molecular target: Ephrin type-A receptor 8 (Homo sapiens, UniProt P29322); assay: Binding affinity to recombinant N-terminal His-FLAG-GST-tagged […] (unknown origin) (571 to 924 residues) expressed in baculovirus infected Sf9 insect cells incubated for 1 hr by TR-FRET assay
[8] = molecular target: Ephrin type-A receptor 3 (Homo sapiens, UniProt P29320); assay: Binding affinity to recombinant N-terminal His-FLAG-GST-tagged EPHA3 (unknown origin) (579 to 983 residues) expressed in baculovirus infected Sf9 insect cells incubated for 1 hr by TR-FRET assay
[9] = molecular target: Ephrin type-B receptor 2 (Homo sapiens, UniProt P29323); assay: Binding affinity to recombinant N-terminal His-FLAG-GST-tagged EPHB2 (unknown origin) (581 to 986 residues) expressed in baculovirus infected Sf9 insect cells incubated for 1 hr by TR-FRET assay
[10] = molecular target: Serine/threonine-protein kinase pim-3 (Homo sapiens, UniProt Q86V86); assay: Binding affinity to recombinant human full-length N-terminal GST-tagged PIM3 expressed in baculovirus expression system using S6K2 peptide as substrate incubated for 1 hr by TR-FRET assay
[11] = molecular target: MAP/microtubule affinity-regulating kinase 4 (Homo sapiens, UniProt Q96L34); assay: Binding affinity to recombinant full-length N-terminal His-FLAG-tagged MARK4 (unknown origin) expressed in baculovirus infected Sf9 insect cells incubated for 1 hr by TR-FRET assay
[12] = molecular target: Dual specificity mitogen-activated protein kinase kinase 7 (Homo sapiens, UniProt O14733); assay: Binding affinity to recombinant human full-length N-terminal GST-tagged MAP2K7 (1 to 419 residues) expressed in baculovirus expression system using JNK2 as substrate incubated for 1 hr by TR-FRET assay
[13] = molecular target: Tyrosine-protein kinase ABL1 (Homo sapiens, UniProt P00519); assay: Binding affinity to recombinant human full-length N-terminal His-tagged ABL1 expressed in baculovirus expression system incubated for 1 hr by TR-FRET assay
[14] = molecular target: Cyclin-dependent kinase 5/CDK5 activator 1 (Homo sapiens, UniProt Q00535); assay: Binding affinity to recombinant human full-length N-terminal GST-tagged CDK5 (1 to 292 residues)/N-terminal His6-tagged p25 (99 to 307 residues) expressed in baculovirus expression system using modified histone H1 as substrate incubated for 1 hr by TR-FRET assay
[15] = molecular target: Tyrosine-protein kinase TXK (Homo sapiens, UniProt P42681); assay: Binding affinity to recombinant human N-terminal GST-tagged TXK (260 to 527 residues) expressed in baculovirus expression system using srctide as substrate incubated for 1 hr by TR-FRET assay
[16] = molecular target: Ephrin type-B receptor 6 (Homo sapiens, UniProt O15197); assay: Binding affinity to recombinant N-terminal His-FLAG-GST-tagged EPHB6 (unknown origin) (683 to 1130 residues) expressed in baculovirus infected Sf9 insect cells incubated for 1 hr by TR-FRET assay
[17] = molecular target: Ephrin type-B receptor 4 (Homo sapiens, UniProt P54760); assay: Binding affinity to recombinant N-terminal His-FLAG-GST-tagged EPHB4 (unknown origin) (577 to 987 residues) expressed in baculovirus infected Sf9 insect cells incubated for 1 hr by TR-FRET assay
[18] = molecular target: Ephrin type-A receptor 4 (Homo sapiens, UniProt P54764); assay: Binding affinity to recombinant N-terminal His-FLAG-GST-tagged EPHA4 (unknown origin) (586 to 986 residues) expressed in baculovirus infected Sf9 insect cells incubated for 1 hr by TR-FRET assay
[19] = molecular target: Proto-oncogene tyrosine-protein kinase ROS (Homo sapiens, UniProt P08922); assay: Binding affinity to recombinant N-terminal His-FLAG-tagged ROS1 (unknown origin) (1883 to 2347 residues) expressed in baculovirus infected Sf9 insect cells incubated for 1 hr by TR-FRET assay
[20] = molecular target: cAMP-dependent protein kinase catalytic subunit PRKX (Homo sapiens, UniProt P51817); assay: Binding affinity to recombinant full-length N-terminal His-FLAG-GST-tagged PRKX (unknown origin) expressed in baculovirus infected Sf9 insect cells incubated for 1 hr by TR-FRET assay
[21] = molecular target: Homeodomain-interacting protein kinase 2 (Homo sapiens, UniProt Q9H2X6); assay: Binding affinity to recombinant full-length N-terminal His-FLAG-tagged HIPK2 (unknown origin) expressed in baculovirus infected Sf9 insect cells incubated for 1 hr by TR-FRET assay
[22] = molecular target: Mitogen-activated protein kinase 9 (Homo sapiens, UniProt P45984); assay: Binding affinity to recombinant full-length N-terminal His-FLAG-tagged MAPK9 (unknown origin) expressed in baculovirus infected Sf9 insect cells incubated for 1 hr by TR-FRET assay
Mitogen-activated protein kinase 9, sequence (P45984 whole entry): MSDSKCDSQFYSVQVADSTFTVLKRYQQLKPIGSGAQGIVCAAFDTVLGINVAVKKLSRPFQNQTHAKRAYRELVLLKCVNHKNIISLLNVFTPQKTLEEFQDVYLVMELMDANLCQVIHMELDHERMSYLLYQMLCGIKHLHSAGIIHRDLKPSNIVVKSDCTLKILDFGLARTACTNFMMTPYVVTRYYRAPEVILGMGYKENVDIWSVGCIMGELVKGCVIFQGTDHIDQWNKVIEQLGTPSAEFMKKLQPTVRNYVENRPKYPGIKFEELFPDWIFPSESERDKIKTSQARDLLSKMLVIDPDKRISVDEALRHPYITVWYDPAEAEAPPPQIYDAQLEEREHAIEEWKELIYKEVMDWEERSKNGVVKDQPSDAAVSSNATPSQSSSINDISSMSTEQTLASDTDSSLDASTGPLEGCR

MAP/microtubule affinity-regulating kinase 4, sequence (Q96L34 whole entry, the tested form may be a part): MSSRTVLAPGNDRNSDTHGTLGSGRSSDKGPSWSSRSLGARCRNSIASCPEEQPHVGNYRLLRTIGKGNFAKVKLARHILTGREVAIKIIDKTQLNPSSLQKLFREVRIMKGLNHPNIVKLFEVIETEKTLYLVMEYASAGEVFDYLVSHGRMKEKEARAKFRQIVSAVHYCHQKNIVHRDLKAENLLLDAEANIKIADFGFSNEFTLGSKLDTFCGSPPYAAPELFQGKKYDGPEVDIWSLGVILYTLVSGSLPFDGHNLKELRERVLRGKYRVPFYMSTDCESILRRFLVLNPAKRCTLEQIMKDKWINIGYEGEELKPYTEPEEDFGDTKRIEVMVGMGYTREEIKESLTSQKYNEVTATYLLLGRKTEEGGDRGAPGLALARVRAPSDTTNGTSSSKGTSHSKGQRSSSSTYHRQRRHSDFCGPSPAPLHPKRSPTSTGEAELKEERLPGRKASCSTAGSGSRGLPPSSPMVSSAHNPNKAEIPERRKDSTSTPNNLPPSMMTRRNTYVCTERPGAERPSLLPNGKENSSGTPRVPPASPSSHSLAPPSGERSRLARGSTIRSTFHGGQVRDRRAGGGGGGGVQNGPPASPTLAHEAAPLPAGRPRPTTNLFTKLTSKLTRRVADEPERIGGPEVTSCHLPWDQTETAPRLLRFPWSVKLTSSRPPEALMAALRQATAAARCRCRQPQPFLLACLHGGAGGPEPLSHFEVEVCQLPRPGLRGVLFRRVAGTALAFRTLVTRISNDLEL
Ephrin type-B receptor 2, sequence (P29323 whole entry, the tested form may be a part): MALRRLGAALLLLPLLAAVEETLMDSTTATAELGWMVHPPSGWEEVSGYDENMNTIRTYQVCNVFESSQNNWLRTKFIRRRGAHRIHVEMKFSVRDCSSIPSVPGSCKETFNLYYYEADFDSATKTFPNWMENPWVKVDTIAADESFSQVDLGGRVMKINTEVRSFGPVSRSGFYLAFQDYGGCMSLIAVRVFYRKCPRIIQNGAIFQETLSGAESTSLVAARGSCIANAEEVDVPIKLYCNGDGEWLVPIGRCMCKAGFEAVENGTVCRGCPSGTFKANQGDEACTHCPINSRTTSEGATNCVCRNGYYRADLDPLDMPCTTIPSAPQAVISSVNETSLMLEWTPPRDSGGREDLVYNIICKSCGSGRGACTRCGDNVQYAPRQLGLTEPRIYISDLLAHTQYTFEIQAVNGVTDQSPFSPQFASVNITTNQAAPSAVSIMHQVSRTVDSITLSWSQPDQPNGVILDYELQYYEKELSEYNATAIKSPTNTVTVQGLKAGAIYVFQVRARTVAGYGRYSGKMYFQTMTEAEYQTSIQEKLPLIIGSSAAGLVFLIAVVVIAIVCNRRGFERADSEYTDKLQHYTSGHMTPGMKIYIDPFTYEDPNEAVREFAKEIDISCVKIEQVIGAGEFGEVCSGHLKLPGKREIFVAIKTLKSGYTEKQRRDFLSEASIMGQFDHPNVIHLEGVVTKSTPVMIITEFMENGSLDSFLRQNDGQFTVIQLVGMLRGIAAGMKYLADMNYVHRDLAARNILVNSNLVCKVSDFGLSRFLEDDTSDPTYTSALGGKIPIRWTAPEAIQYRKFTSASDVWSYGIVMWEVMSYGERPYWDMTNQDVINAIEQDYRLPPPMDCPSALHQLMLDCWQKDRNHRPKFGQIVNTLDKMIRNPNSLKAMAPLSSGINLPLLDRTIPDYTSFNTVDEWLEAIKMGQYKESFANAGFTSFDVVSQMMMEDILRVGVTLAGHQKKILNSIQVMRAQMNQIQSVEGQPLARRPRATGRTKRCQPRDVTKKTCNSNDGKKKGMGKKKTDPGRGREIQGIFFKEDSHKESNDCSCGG
Dual specificity mitogen-activated protein kinase kinase 7, sequence (O14733 whole entry, the tested form may be a part): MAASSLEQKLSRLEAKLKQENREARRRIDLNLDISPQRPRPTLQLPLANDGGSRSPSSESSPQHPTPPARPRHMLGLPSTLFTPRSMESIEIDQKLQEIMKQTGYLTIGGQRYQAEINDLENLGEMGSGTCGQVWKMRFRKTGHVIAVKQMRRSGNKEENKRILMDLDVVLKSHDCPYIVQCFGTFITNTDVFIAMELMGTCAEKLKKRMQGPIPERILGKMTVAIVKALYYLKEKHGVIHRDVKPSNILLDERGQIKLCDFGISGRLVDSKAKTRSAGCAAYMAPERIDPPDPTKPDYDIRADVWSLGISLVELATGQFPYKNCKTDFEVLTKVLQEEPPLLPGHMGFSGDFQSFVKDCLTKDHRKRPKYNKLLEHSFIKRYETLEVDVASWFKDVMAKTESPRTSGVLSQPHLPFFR
Serine/threonine-protein kinase MRCK gamma, sequence (Q6DT37 whole entry): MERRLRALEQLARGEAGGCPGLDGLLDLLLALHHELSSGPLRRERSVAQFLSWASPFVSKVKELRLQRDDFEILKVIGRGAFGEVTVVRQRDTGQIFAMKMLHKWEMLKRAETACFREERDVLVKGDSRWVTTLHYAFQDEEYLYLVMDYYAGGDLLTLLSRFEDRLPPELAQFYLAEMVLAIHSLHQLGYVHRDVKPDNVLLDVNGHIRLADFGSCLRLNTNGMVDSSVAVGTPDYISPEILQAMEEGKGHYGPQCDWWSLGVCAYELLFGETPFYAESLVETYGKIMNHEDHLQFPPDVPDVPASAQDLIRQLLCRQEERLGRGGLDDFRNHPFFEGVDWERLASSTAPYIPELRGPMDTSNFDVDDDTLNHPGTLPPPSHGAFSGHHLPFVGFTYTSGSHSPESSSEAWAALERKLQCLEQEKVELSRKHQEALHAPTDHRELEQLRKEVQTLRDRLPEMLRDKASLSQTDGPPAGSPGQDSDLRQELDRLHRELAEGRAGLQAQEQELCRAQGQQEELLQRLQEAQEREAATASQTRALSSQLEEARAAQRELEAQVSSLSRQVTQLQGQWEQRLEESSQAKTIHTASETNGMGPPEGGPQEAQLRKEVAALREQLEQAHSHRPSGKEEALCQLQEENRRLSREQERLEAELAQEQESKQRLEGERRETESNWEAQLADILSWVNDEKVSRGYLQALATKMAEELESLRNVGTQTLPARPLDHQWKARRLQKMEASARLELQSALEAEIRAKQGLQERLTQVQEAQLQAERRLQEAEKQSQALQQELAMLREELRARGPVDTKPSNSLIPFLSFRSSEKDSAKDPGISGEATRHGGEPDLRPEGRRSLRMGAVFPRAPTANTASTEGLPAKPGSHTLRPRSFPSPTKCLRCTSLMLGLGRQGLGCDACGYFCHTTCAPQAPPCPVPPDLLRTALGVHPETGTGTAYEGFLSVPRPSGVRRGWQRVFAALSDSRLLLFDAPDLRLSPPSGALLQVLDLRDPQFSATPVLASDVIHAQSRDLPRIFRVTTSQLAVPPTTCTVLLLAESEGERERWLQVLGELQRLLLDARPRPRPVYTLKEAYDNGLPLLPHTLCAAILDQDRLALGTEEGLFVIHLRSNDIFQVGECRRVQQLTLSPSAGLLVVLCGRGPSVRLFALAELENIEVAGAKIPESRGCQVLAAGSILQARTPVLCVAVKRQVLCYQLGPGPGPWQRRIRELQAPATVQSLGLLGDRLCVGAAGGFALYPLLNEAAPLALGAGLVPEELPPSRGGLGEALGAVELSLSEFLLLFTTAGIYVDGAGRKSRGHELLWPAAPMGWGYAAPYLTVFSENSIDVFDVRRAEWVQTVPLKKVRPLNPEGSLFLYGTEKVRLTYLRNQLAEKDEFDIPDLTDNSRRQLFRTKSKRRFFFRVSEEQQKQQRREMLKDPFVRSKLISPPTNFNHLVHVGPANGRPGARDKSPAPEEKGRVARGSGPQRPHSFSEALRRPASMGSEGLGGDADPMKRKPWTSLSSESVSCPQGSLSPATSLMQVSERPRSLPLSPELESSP
cAMP-dependent protein kinase catalytic subunit PRKX, sequence (P51817 whole entry): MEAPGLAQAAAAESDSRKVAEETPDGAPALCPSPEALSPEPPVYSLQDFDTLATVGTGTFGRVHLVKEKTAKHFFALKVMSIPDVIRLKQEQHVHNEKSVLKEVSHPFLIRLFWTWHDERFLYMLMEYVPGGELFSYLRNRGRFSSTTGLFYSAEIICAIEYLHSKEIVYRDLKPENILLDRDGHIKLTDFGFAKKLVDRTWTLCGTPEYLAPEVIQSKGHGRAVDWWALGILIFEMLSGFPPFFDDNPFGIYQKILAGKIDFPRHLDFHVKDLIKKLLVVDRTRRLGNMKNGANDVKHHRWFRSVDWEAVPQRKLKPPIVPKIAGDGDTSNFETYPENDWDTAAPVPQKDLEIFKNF

## CO[C@@H]1[C@H](NCCOCCOCCOCCNC(=O)CCC2=[N+]3C(=Cc4c(C)cc(C)n4[B-]3(F)F)C=C2)C[C@H]2O[C@]1(C)n1c3ccccc3c3c4c(c5c6ccccc6n2c5c31)C(=O)NC4
[1]
  Kd: 14 nM
[2]
  Kd: 7 nM
[3]
  Kd: 94 nM
[4]
  Kd: 10 nM
[5]
  Kd: 109 nM
[6]
  Kd: 147 nM
[7]
  Kd: 1560 nM
[8]
  Kd: 747 nM
[9]
  Kd: 985 nM
[10]
  Kd: 4 nM
[11]
  Kd: 6 nM
[12]
  Kd: 293 nM
[13]
  Kd: 918 nM
[14]
  Kd: 87 nM
[15]
  Kd: 1010 nM
[16]
  Kd: 570 nM
[17]
  Kd: 1800 nM
[18]
  Kd: 1100 nM
[19]
  Kd: 238 nM
[20]
  Kd: 43 nM

## CO[C@@H]1[C@H](N(C)CCOCCOCCOCCNC(=O)CCC2=[N+]3C(=Cc4c(C)cc(C)n4[B-]3(F)F)C=C2)C[C@H]2O[C@]1(C)n1c3ccccc3c3c4c(c5c6ccccc6n2c5c31)C(=O)NC4
[21]
  Kd: 559 nM
[22]
  Kd: 745 nM
